Entries after “also recorded” stand apart in the source; their conditions may differ. Residues, ends and D or L forms follow the SMILES beside them.
Tests used:
U937 cells [1] = experiment: cells; conditions: Homo sapiens, U-937, read-out: cell death
U937 cells [2] = experiment: Cytotoxicity (apoptosis / cell death) of R9-linked caPCNA peptides by flow cytometry; type: cell-based; conditions: 24 hours; for % cancer cell death: 30mM of peptide, flow cytometry
Procedure: First, it was tested whether or not the R9 sequence alone had any cytotoxic effect in U937 cells. The U937 cells were treated with up to 100mM of the R9 sequence for 24 hours.
Once it was established that the R9 sequence promoted cellular uptake of the peptide, increasing amounts of R9-caPep were added to U937 cells to determine if the peptide's uptake would have any cytotoxic effect.
To verify that the cytotoxicity of the R9-caPep was due to the PCNA peptide sequence itself, a scrambled peptide using the same eight amino acids, R9-Scrambled, was prepared (Table 3).
The cancer associated epitope of PCNA is also part of the flexible IDCL region of PCNA. This region of PCNA is considered to have a disordered structure. Disordered regions in proteins are usually associated with protein-to-protein interaction sites. […] To determine which amino acids in the R9-caPep sequence are necessary for binding of the peptide to these proteins, peptide constructs were generated that mutated each aminoacid individually to an alanine (Table 3). Each alanine mutant peptide of caPCNA was used to treat U937 cells for 24 hours. An amino acid that is important to protein binding would presumably show decreased cell cytotoxicity when it is substituted with an alanine. Those amino acids which are not critical for binding could be anticipated to show a cytotoxic level similar to that of the unsubstituted peptide. For a comparison of the potential cytotoxic effect of each of the alanine substituted R9-linked caPeptides, U937 cells were treated with 30mM of peptide. […] It was observed that peptides containing an alanine substituted at position aa126 or aa133 show little cytotoxic activity and therefore were likely important for the peptide's activity.

MCF 7 (breast cancer) = experiment: Cytotoxic effect in malignant breast cells, cell death by flow cytometry; type: cell-based; set-up: dose or concentration left out as unconfirmed; conditions: 48 hours
Procedure: The R9-caPeptide was evaluated for cytotoxic effects in non-malignant (MCF 10A) and malignant (MCF 7) breast cells (Table 6). The cells were treated with 50 mM R9-caPeptide for 48 hours and the extent of cell death was evaluated by flow cytometry. […] The significant level of cytotoxicity in breast cancer cells is likely due to enhanced binding interaction of caPeptide with specific DNA repair proteins in these cells, as indicated for example by the observed preferential binding of caPCNA for XPG protein, leading to an inhibition of DNA repair in these cells, and ultimately cell death.

Q: With `COc1cccc2c1C(=O)c1c(O)c3c(c(O)c1C2=O)C[C@@](O)(C(=O)CO)C[C@@H]3O[C@H]1C[C@H](N)[C@H](O)[C@H](C)O1` [doxorubicin] as the compound, how does the cytotoxicity at 0.1 µM (U937 cells [1]) read?
A: 30%

Q: How did the “% cancer cell death” value (U937 cells [2]) turn out when “RRRRRRRRRCCLAIPEQEY [A2-sub. peptide, R9-linked caPCNA peptide, alanine at aa127]” was run?
A: 47±13%

Q: How did the “% cancer cell death” value (U937 cells [2]) turn out when “RRRRRRRRRCCAGIPEQEY [A1-sub. peptide, R9-linked caPCNA peptide, alanine at aa126]” was run?
A: 8±9%

Q: “RRRRRRRRRCCLGIPEQAY [A7-sub. peptide, R9-linked caPCNA peptide, alanine at aa132]” was tested. Which “% cancer cell death” value (U937 cells [2]) did it give?
A: 88±4%

Q: For “RRRRRRRRRCCLGIPEAEY [A6-sub. peptide, R9-linked caPCNA peptide, alanine at aa131]”, which “% cancer cell death” value (U937 cells [2]) is on record?
A: 93±7%

Q: How did the “% cancer cell death” value (U937 cells [2]) turn out when “RRRRRRRRRCCLGIPAQEY [A5-sub. peptide, R9-linked caPCNA peptide, alanine at aa130]” was run?
A: 45±14%

Q: With `CC[C@H](C)[C@H](NC(=O)CNC(=O)[C@H](CC(C)C)NC(=O)[C@H](CS)NC(=O)[C@H](CS)NC(=O)[C@@H](CCCNC(=N)N)NC(=O)[C@@H](CCCNC(=N)N)NC(=O)[C@@H](CCCNC(=N)N)NC(=O)[C@@H](CCCNC(=N)N)NC(=O)[C@@H](CCCNC(=N)N)NC(=O)[C@@H](CCCNC(=N)N)NC(=O)[C@@H](CCCNC(=N)N)NC(=O)[C@@H](CCCNC(=N)N)NC(=O)[C@H](N)CCCNC(=N)N)C(=O)N1CCC[C@H]1C(=O)N[C@@H](CCC(=O)O)C(=O)N[C@@H](CCC(N)=O)C(=O)N[C@@H](CCC(=O)O)C(=O)N[C@@H](Cc1ccc(O)cc1)C(=O)O` [R9-caPep] as the compound, how does the “cytotoxicity for malignant breast cells (MCF7) relative to non-malignant breast cells (MCF10A)” value (MCF 7 (breast cancer)) read?
A: approximately five times more cytotoxic

Q: “RRRRRRRRRCCLGIPEQEA [A8-sub. peptide, R9-linked caPCNA peptide, alanine at aa133]” was tested. Which “% cancer cell death” value (U937 cells [2]) did it give?
A: 7±6%

Q: `CC[C@H](C)[C@H](NC(=O)CNC(=O)[C@@H](N)CC(C)C)C(=O)N1CCC[C@H]1C(=O)N[C@@H](CCC(=O)O)C(=O)N[C@@H](CCC(N)=O)C(=O)N[C@@H](CCC(=O)O)C(=O)N[C@@H](Cc1ccc(O)cc1)C(=O)O` [caPeptide] (H-LGIPEQEY-OH) was tested. Which “cytotoxic activity (apoptosis)” value (U937 cells [2]; up to 200mM of caPeptide) did it give?
A: did not have any cytotoxic activity; also recorded: no increase in apoptosis was detected

Q: How did the “% cancer cell death” value (U937 cells [2]) turn out when “RRRRRRRRRCCLGIAEQEY [A4-sub. peptide, R9-linked caPCNA peptide, alanine at aa129]” was run?
A: 80±7%

Q: Which “cytotoxic effect (apoptosis)” value (U937 cells [2]; up to 100mM of the R9 sequence) does the source give for RRRRRRRRR [R9, reference compound] here?
A: did not promote apoptosis; also recorded: did not cause an increase apoptosis

Q: For “RRRRRRRRRCCLGAPEQEY [A3-sub. peptide, R9-linked caPCNA peptide, alanine at aa128]”, which “% cancer cell death” value (U937 cells [2]) is on record?
A: 21±12%

Source: patent publication EP2913057B1, “Cancer peptide therapeutics” (Indiana University Research and Technology Corporation, priority 2008, dated 2010)
